Publication PMC4029082, “Functional characterisation of a nicotinic acetylcholine receptor α subunit from the brown dog tick, Rhipicephalus sanguineus^” (International Journal for Parasitology, 2014)
pEC50: −log10 of the molar value.

Molecular target: T1, Rsanα1 nicotinic acetylcholine receptor α subunit (Rhipicephalus sanguineus, UniProt V9Z9T0)
T1 construct: full-length Rsanα1 (GenBank KF695387) expressed in Xenopus laevis oocytes; with chicken β2 nAChR subunit
Assay: two-electrode voltage clamp in Xenopus oocytes, concentration-response curve (agonist)
Type: cell-based

T1 sequence (V9Z9T0 45-525): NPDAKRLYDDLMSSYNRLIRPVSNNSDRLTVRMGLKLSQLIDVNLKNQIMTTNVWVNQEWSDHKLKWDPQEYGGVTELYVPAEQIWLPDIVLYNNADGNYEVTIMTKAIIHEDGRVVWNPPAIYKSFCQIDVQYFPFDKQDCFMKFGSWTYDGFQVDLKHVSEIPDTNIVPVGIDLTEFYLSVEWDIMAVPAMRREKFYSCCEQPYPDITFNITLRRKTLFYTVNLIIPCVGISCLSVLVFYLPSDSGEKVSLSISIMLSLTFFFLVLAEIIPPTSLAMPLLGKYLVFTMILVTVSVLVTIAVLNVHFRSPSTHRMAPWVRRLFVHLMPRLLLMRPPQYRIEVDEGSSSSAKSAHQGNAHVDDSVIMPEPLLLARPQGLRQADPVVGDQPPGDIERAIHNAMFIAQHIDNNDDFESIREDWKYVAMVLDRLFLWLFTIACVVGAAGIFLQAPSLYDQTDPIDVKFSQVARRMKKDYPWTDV
T1 sequence (P09484 19-491 partner): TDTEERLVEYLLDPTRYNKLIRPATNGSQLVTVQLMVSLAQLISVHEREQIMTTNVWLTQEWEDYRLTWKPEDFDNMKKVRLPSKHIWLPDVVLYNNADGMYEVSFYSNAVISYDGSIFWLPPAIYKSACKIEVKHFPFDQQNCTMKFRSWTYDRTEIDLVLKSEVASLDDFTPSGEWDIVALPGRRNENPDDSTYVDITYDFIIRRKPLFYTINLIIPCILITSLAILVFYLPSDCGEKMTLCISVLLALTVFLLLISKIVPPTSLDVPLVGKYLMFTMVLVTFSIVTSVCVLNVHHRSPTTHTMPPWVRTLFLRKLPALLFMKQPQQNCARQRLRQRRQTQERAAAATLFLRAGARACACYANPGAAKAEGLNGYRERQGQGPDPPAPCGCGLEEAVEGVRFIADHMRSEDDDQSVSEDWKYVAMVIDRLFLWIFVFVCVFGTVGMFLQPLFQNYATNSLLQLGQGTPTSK

Compound: CC(=O)OCC[N+](C)(C)C [acetylcholine]
- pEC50: 4.97
